Measured values from US20210077382A1, “COMPOSITIONS, DEVICES, AND METHODS FOR THE TREATMENT OF OPIOID-RECEPTOR-MEDIATED CONDITIONS” (Opiant Phamaceuticals, Inc., priority 2016, published 2021).

Experiment: Clinical pharmacokinetic crossover study of IN, IM and oral naltrexone; plasma naltrexone and 6β-naltrexol by LC-MS/MS
Description: Study Goals. […] Secondary endpoints included adverse events (AEs), vital signs (heart rate, sitting blood pressure, and respiration rate), electrocardiogram (ECG), clinical laboratory changes and nasal irritation using the nasal irritation scale.
Study design. […] This was an in-patient open-label, crossover study involving approximately 14 healthy volunteers. […] Subjects stayed in the in-patient facility for 13 days to complete the entire study. Subjects were called 3 to 5 days after discharge to inquire concerning AEs and concomitant medications since discharge. Informed consent was obtained from all subjects, and all were screened for eligibility to participate in the study, including medical history, physical examination, clinical chemistry, coagulation markers, hematology, infectious disease serology, urinalysis, urine drug and alcohol toxicology screen, vital signs and ECG.
On days of study drug administration, a 12-lead ECG was performed approximately 1 hour prior to dosing and at approximately 1 and 4 hours post-dose. Vital signs were measured pre-dose and about 1 and 4 hours post-dose.
Study Drugs and Dosing. […] The IN (40 mg/mL) formulations were made by the staff pharmacist at Vince & Associates; the vehicle for the IN formulations was sterile water for injection. The IM formulation (2 mg/mL) was made by the staff pharmacist at Vince & Associates; the vehicle was sterile saline for injection.
Subjects stayed in the in-patient facility for 13 days to complete the entire study and were discharged 2 days after the fourth dose.
PK Assessments. […] Plasma was separated from whole blood and stored frozen at […] until assayed.
Analysis. […] Dose-adjusted values for AUCs and Cmax were calculated. The relative extent of IN and PO absorption (IN and PO versus IM) will be estimated from the dose-corrected AUCs.

Oc1ccc2c3c1O[C@H]1[C@H](O)CC[C@@]4(O)[C@@H](C2)N(CC2CC2)CC[C@]314 [6β-naltrexol]
λz of 6β-naltrexol, mean (CV %) (naltrexone 4 mg IN plus […] Intravail, N = 12): 0.0553 (15.1) 1/h
AUC0-inf of 6β-naltrexol, mean (CV %) (naltrexone 4 mg IN, N = 13): 44.0 ng·h/mL
AUC0-inf/Dose of 6β-naltrexol, mean (CV %) (naltrexone 4 mg IN, N = 13): 12.2 (23.1) h · ng/mL/mg
AUC0-t of 6β-naltrexol, mean (CV %) (naltrexone 4 mg IN, N = 13): 40.3 (23.3) h · ng/mL
AUC0-t/Dose of 6β-naltrexol, mean (CV %) (naltrexone 4 mg IN, N = 13): 11.1 (23.3) h · ng/mL/mg
AUCextrap of 6β-naltrexol, mean (CV %) (naltrexone 4 mg IN, N = 13): 8.57 (46.1) %
Cmax of 6β-naltrexol, mean (CV %) (naltrexone 4 mg IN, N = 13): 3.01 (33.2) ng/mL
Cmax/Dose of 6β-naltrexol, mean (CV %) (naltrexone 4 mg IN, N = 13): 0.833 ng/mL/mg
Tmax of 6β-naltrexol, median (minimum, maximum) (naltrexone 4 mg IN, N = 13): 2.00 h
t1/2 of 6β-naltrexol, mean (CV %) (naltrexone 4 mg IN, N = 13): 13.7 (22.7) h
λz of 6β-naltrexol, mean (CV %) (naltrexone 4 mg IN, N = 13): 0.0530 h⁻¹
Cmax/Dose of 6β-naltrexol, mean (CV %) (naltrexone 4 mg IN, N = 13, listed as 6β-Naltrexol): 0.833 (33.2) ng/mL/mg
Mean concentration of 6β-naltrexol (naltrexone 4 mg IN, hour 0): 0 ng/mL
Mean concentration of 6β-naltrexol (naltrexone 4 mg IN, hour 0.042): 0 ng/mL
Mean concentration of 6β-naltrexol (naltrexone 4 mg IN, hour 0.083): 0.0321 ng/mL
Mean concentration of 6β-naltrexol (naltrexone 4 mg IN, hour 0.17): 0.196 ng/mL
Mean concentration of 6β-naltrexol (naltrexone 4 mg IN, hour 0.25): 0.45 ng/mL
Mean concentration of 6β-naltrexol (naltrexone 4 mg IN, hour 0.33): 0.693 ng/mL
Mean concentration of 6β-naltrexol (naltrexone 4 mg IN, hour 0.5): 1.11 ng/mL
Mean concentration of 6β-naltrexol (naltrexone 4 mg IN, hour 0.75): 1.82 ng/mL
Mean concentration of 6β-naltrexol (naltrexone 4 mg IN, hour 1): 1.83 ng/mL
Mean concentration of 6β-naltrexol (naltrexone 4 mg IN, hour 2): 2.68 ng/mL
Mean concentration of 6β-naltrexol (naltrexone 4 mg IN, hour 3): 2.61 ng/mL
Mean concentration of 6β-naltrexol (naltrexone 4 mg IN, hour 4): 2.37 ng/mL
Mean concentration of 6β-naltrexol (naltrexone 4 mg IN, hour 6): 1.97 ng/mL
Mean concentration of 6β-naltrexol (naltrexone 4 mg IN, hour 8): 1.62 ng/mL
Mean concentration of 6β-naltrexol (naltrexone 4 mg IN, hour 12): 1.26 ng/mL
Mean concentration of 6β-naltrexol (naltrexone 4 mg IN, hour 16): 0.919 ng/mL
Mean concentration of 6β-naltrexol (naltrexone 4 mg IN, hour 24): 0.602 ng/mL
Mean concentration of 6β-naltrexol (naltrexone 4 mg IN, hour 30): 0.418 ng/mL
Mean concentration of 6β-naltrexol (naltrexone 4 mg IN, hour 36): 0.292 ng/mL
Mean concentration of 6β-naltrexol (naltrexone 4 mg IN, hour 48): 0.184 ng/mL
AUC0-inf of 6β-naltrexol, mean (CV %) (naltrexone 50 mg Oral, N = 10): 675 ng·h/mL
AUC0-inf/Dose of 6β-naltrexol, mean (CV %) (naltrexone 50 mg Oral, N = 10): 14.9 (19.9) h · ng/mL/mg
AUC0-t of 6β-naltrexol, mean (CV %) (naltrexone 50 mg Oral, N = 10): 614 (19.5) h · ng/mL
AUC0-t/Dose of 6β-naltrexol, mean (CV %) (naltrexone 50 mg Oral, N = 10): 13.6 (19.5) h · ng/mL/mg
AUCextrap of 6β-naltrexol, mean (CV %) (naltrexone 50 mg Oral, N = 10): 8.79 (57.3) %
Cmax of 6β-naltrexol, mean (CV %) (naltrexone 50 mg Oral, N = 10): 90.7 ng/mL
Cmax/Dose of 6β-naltrexol, mean (CV %) (naltrexone 50 mg Oral, N = 10): 2.00 ng/mL/mg
Tmax of 6β-naltrexol, median (minimum, maximum) (naltrexone 50 mg Oral, N = 10): 0.63 h
t1/2 of 6β-naltrexol, mean (CV %) (naltrexone 50 mg Oral, N = 10): 13.9 (15.9) h
λz of 6β-naltrexol, mean (CV %) (naltrexone 50 mg Oral, N = 10): 0.0510 (15.8) 1/h
Cmax/Dose of 6β-naltrexol, mean (CV %) (naltrexone 50 mg Oral, N = 10, listed as 6β-Naltrexol): 2.00 (30.3) ng/mL/mg
Mean concentration of 6β-naltrexol (naltrexone 50 mg Oral, hour 0): 0.0454 ng/mL
Mean concentration of 6β-naltrexol (naltrexone 50 mg Oral, hour 0.042): 0.0448 ng/mL
Mean concentration of 6β-naltrexol (naltrexone 50 mg Oral, hour 0.083): 1.4 ng/mL
Mean concentration of 6β-naltrexol (naltrexone 50 mg Oral, hour 0.17): 14.2 ng/mL
Mean concentration of 6β-naltrexol (naltrexone 50 mg Oral, hour 0.25): 31.6 ng/mL
Mean concentration of 6β-naltrexol (naltrexone 50 mg Oral, hour 0.33): 45.5 ng/mL
Mean concentration of 6β-naltrexol (naltrexone 50 mg Oral, hour 0.5): 68.7 ng/mL
Mean concentration of 6β-naltrexol (naltrexone 50 mg Oral, hour 0.75): 60.8 ng/mL
Mean concentration of 6β-naltrexol (naltrexone 50 mg Oral, hour 1): 58.6 ng/mL
Mean concentration of 6β-naltrexol (naltrexone 50 mg Oral, hour 2): 54 ng/mL
Mean concentration of 6β-naltrexol (naltrexone 50 mg Oral, hour 3): 45.8 ng/mL
Mean concentration of 6β-naltrexol (naltrexone 50 mg Oral, hour 4): 38 ng/mL
Mean concentration of 6β-naltrexol (naltrexone 50 mg Oral, hour 6): 28.5 ng/mL
Mean concentration of 6β-naltrexol (naltrexone 50 mg Oral, hour 8): 22.2 ng/mL
Mean concentration of 6β-naltrexol (naltrexone 50 mg Oral, hour 12): 15.4 ng/mL
Mean concentration of 6β-naltrexol (naltrexone 50 mg Oral, hour 16): 11.4 ng/mL
Mean concentration of 6β-naltrexol (naltrexone 50 mg Oral, hour 24): 8.14 ng/mL
Mean concentration of 6β-naltrexol (naltrexone 50 mg Oral, hour 30): 5.93 ng/mL
Mean concentration of 6β-naltrexol (naltrexone 50 mg Oral, hour 36): 4.35 ng/mL
Mean concentration of 6β-naltrexol (naltrexone 50 mg Oral, hour 48): 2.43 ng/mL
Dose-adjusted Cmax of 6β-naltrexol after oral administration, higher than after IN and IM doses (oral vs IN and IM): approximately 2 fold
